From patent US20130158098A1, “Alkenyl Substituted Cycloaliphatic Compounds as Chemical Inducers of Proximity” (priority 2010, published 2013)
“Also recorded” adds a separate entry of the source.

Assays:
[1] = molecular target: T1, VP16-PYLcs and Gal4 DBD-ABIcs (Arabidopsis thaliana, UniProt Q8VZS8); assay: ABA-induced luciferase activation (ABA-activator cassette + UAS-luciferase reporter); type: cell-based
T1 construct: HA (from the reverse primer); expressed in transfected cells; host or cells: CHO; also HEK 293/293T, NIH3T3, COS7, B35, Jurkat, E14, TC1, MEF
T1 sequence (Q8VZS8 33-209): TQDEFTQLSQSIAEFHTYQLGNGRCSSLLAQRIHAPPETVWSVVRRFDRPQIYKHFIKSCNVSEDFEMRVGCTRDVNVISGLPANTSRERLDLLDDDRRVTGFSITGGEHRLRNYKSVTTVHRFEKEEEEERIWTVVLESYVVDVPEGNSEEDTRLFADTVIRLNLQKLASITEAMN
T1 sequence (P49597 126-423 partner): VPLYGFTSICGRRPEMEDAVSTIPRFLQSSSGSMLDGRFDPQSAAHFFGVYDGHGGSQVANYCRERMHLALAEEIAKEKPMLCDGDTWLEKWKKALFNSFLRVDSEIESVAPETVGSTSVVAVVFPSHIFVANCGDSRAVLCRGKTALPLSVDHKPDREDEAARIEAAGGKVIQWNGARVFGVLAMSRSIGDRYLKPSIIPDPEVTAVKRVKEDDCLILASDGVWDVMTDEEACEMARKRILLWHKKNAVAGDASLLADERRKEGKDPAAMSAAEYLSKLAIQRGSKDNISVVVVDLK
From the text: Activation construct: A fragment of PYL1 (one of PYR/PYL/RCAR members) (aa 33-209, also referred to as “PYLcs”) was linked to a transcriptional activation domain and a fragment of ABI1 (one of PP2C members) (aa 126-423, SEQ ID NO:2, also referred to as “ABIcs”) was linked to a DNA binding domain using recombinant DNA methods. In the constructs illustrated in FIG. 1 and FIG. 2, PYL1 (“PYLcs”) is fused to the VP16 activation domain and ABI1 (“ABIcs”) is fused to the Gal4 DNA binding domain. These two regulatory elements are linked by IRES and driven by the SV40 early promoter. Reporter constructs: Full length Luciferase is driven by Fos gene minimal promoter with 5 copies of Gal4 DNA binding sites immediately upstream of Fos promoter. GFP reporter is driven by IL2 minimal promoter with 5×Gal4 DNA binding sites upstream.
CHO, HEK 293T, NIH 3T3, B35, MEF, and COS7 cells were cultured in Dulbecco's modified Eagle's medium (DMEM) (Gibco) with 10% FBS (Omega Scientific), 1× glutamate (Gibco), and 1× penicillin/streptomycin (Pen/Strep; Gibco). Jurkat cells were cultured in RPMI 1640 (Gibco) with 10% FBS, 1× glutamate, and 1×Pen/Strep. E14 and TC1 were cultured in Knockout DMEM (Gibco) with 7.5% ES FBS (Applied Stem Cell), 7.5% knockout SR (Gibco), 1× Hepes (Gibco), 1× sodium pyruvate (Gibco), 1×MEM NEAA (nonessential amino acids; Gibco), 1×2-mercaptoethanol (Gibco), 1× glutamate, 1×Pen/Strep, and leukemia inhibitory factor (LIF) on gelatin (Millipore)-coated plates. Cells (50,000 to 200,000) were plated in a well of a 24-well plate the day before transfection. An amount of 0.1 to 0.5 μg of DNA of each construct was mixed with 50× (v/w) Opti-MEM (Gibco), and then 3× (v/w) FuGENE HD (Roche) was added and thoroughly mixed. After incubation at room temperature for 20 min, the mixture was added to the cells and cultured for 24 to 48 hours before experiments were performed.
Cells in 24-well plates were lysed with 100 μl of 1× Passive Lysis Buffer (Promega) at room temperature for 10 min on a shaker (˜80 rpm). Cell lysates were then spun down (16,000 g) and 10 μl of supernatant was used for luciferase assay. Luciferase substrate solution [100 μl; 5 mg of D-luciferin (BD Biosciences) and 7 mg of coenzyme A (Sigma) in 33 ml of luciferase reading buffer: 20 mM tricine, 1.07 mM (MgCO3)4Mg(OH)2.5H2O, 2.67 mM MgSO4, 0.1 mM EDTA, 33.3 mM dithiothreitol (DTT), and 0.53 mM ATP in water] was added to the cell lysates, and signal was read with a 3-s delay and 1-s integration with a Turner BioSystem Modulus microplate reader. Obtained data were analyzed by Prism 5 (GraphPad Software).
The inducible gene activation module illustrated in FIG. 1 was introduced into a mammalian cell line (CHO, Chinese Hamster Ovary cells) along with a luciferase reporter to test the inducibility of gene activation by ABA, as shown in FIG. 2.
To assay the ability of ABA to induce effective proximity of chimeric proteins, the ability of ABA to reconstitute protein domains was tested. In this strategy, ABA was used to induce the proximity of the yeast Gal4 DNA binding domain (Gal4 DBD) to the herpes simplex virus VP16 transactivation domain (VP16AD) (FIG. 2B). […] The VP16AD, when tethered to DNA binding domains, strongly activates transcription but cannot act without proximity to a DNA binding domain. To test gene activation by ABA-induced proximity of Gal4 DBD and VP16AD, an ABA-activator cassette was constructed by fusing Gal4 DBD to the domain of ABI1 that interacts with PYL1 (the complementary surface of ABI1, or “ABIcs”) and VP16AD to the domain of PYL1 that interacts with ABI1 (the complementary surface of PYL1, or “PYLcs”) (FIG. 2B).
The ABA-induced domain reconstitution leading to induction of gene expression was compared to a similar system in Chinese hamster ovary (CHO) cells controlled by Rap, which has wild-type FKBP12 and Frb replacing ABIcs and PYLcs, respectively, in the chimeric proteins. […]

[2] = tested on: T cells isolated from spleens of C57BL/6J mice; assay: Lymphocyte proliferation assay; type: cell-based, mouse; details: anti-CD3 and anti-CD28 stimulation, 72 hours
Description: Naïve T cells were isolated from spleens of C57BL/6J mice with MACS T cell isolation kit (Miltenyi Biotec). Isolated T cells were stimulated for 72 hours at 37° C. with plate-bound monoclonal antibodies against CD3 (10 μg/ml) and CD28 (2 μg/ml) before cell count measurements.

[3] = E14 and CHO cells (FIG. 12D, FIG. 19)

CC1=CC(=O)CC(C)(C)C1(O)/C=C/C(C)=C/C(=O)O (stereo not drawn) [ABA, abscisic acid]
gene activation in different cell types ([1]; 100 μM, 24 hours, CHO, NIH3T3, HEK293T, COS7, B35, Jurkat, E14, TC1, MEF): observed in all cell types tested
change in protein activity relative to untreated cells (factor) ([1]; ABA system): > 1000
specificity of luciferase induction (ABA vs Rap protein pairs) ([1]; CHO and NIH 3T3 cells, 24 hours): only induced by matching small-molecule and dimerizing protein pairs
relative activation change compared with Rap ([1]; CHO cells): comparable
reversibility of luciferase transcription upon removal ([1]; CHO cells, 100 μM for 24 hours then ABA-free media): fully reversible
dose response of transactivation ([1]; CHO cells, 24 hours): large linear range
time for gene activation to reverse to background after withdrawal ([1]; CHO cells, induced 24 hours, washed five times with fresh medium): ≤ 24 h
time at which activation of luciferase was first observed after addition [1, 3]: 1.5 h
time to reach maximum luciferase activation [1, 3]: ≤ 24 h
relative activation change compared with Rap ([1]; E14 cells): much higher
luciferase production induced ([1]; murine embryonic stem (ES) cells, NIH 3T3 and HEK 293T cells, 24 hours): more than three orders of magnitude
effect upon proliferation induced by antigen receptor signaling [2]: No statistically significant effect; also recorded: did not have an adverse effect
